Assays:
[1] = tested on: black bean aphids (Aphis fabae); assay: Method B: root-systemic test, aqueous solution of the formulated preparation pipetted into the bottle of field bean (Vicia faba) populated with aphids; format: in vivo; details: 10 ppm (based on content of active compound), 4 ml solution pipetted into bottle, after 3 and 6 days of storage, read-out: mortality among the aphids, by root-systemic action
Experimental: Germinated field bean seeds (Vicia faba) with seed roots were transferred into brown glass bottles filled with tap water. Four milliliters of an aqueous solution of the formulated preparation to be examined were pipetted into the brown glass bottle.
The field bean was then heavily populated with about 100 black bean aphids (Aphis fabae). Plants and aphids were then stored in a climatized chamber (16 hours of light/day, 25° C., 40-60% relative atmospheric humidity). After 3 and 6 days of storage, the root-systemic effect of the preparation on the aphids was determined.

[2] = tested on: black bean aphids (Aphis fabae); assay: whole plant or invertebrate; details: in Vicia faba, read-out: mortality among the aphids

Compound: C=CCSC(=NC(=O)c1cnccc1C(F)(F)F)NCc1ccccc1 [Compound A-724, 1-benzyl-S-(2-propenyl)-3-(4-trifluoromethyl-3-pyridylcarbonyl)isothiourea]
- mortality at 10 ppm [1]: ≥ 80%
- mortality at 100 ppm [2]: ≥ 50%
